Laboratory results from ChEMBL document CHEMBL5352384, “Identification of new FK866 analogues with potent anticancer activity against pancreatic cancer” (Eur J Med Chem, 2022).
The source made the active and inactive calls. The rule behind the calls is not given here.

Assays:
Jurkat [1] = test: Antiproliferative activity against human Jurkat cells assessed as inhibition of cell growth measured after 72 hrs by XTT assay; type: functional, cell-based
PANC-1 [2] = test: Cytotoxicity against human PANC-1 cells assessed as reduction in cell viability measured after 72 hrs by resazurin staining based fluorescent plate reader; type: functional; conditions: PANC-1, 72 h
PANC-1 [3] = test: Antiproliferative activity against human PANC-1 cells assessed as inhibition of cell growth measured after 72 hrs by XTT assay; type: functional, cell-based; conditions: PANC-1, 72 h
BXPC-3 = test: Antiproliferative activity against human BXPC-3 cells assessed as inhibition of cell growth measured after 72 hrs by XTT assay; type: functional, cell-based; conditions: BXPC-3, 72 h
MIA PaCa-2 = test: Antiproliferative activity against human MIA PaCa-2 cells assessed as inhibition of cell growth measured after 72 hrs by XTT assay; type: functional, cell-based; conditions: MIA PaCa-2, 72 h
Jurkat [4] = test: Induction of apoptosis in human Jurkat cells assessed as caspase-3 cleavage at 10 nM measured after 96 hrs by flow cytometry analysis; type: functional, cell-based
Jurkat [5] = test: Induction of apoptosis in human Jurkat cells assessed as cell death at upto 1000 nM measured after 96 hrs by annexin V and 7AAD double staining based flow cytometry analysis; type: functional
Jurkat [6] = test: Antiproliferative activity against human Jurkat cells assessed as reduction in cell viability at 10 nM incubated for 96 hrs in presence of NAD+ by annexin V and 7AAD double staining based flow cytometry analysis; type: functional
Jurkat [7] = test: Antiproliferative activity against human Jurkat cells assessed as reduction in cell viability at 10 nM incubated for 96 hrs in presence of NMN by annexin V and 7AAD double staining based flow cytometry analysis; type: functional

| IC50 (Jurkat [1]) | IC50 (MIA PaCa-2) | Compound | other results |
| --- | --- | --- | --- |
| 35 nM |  | O=C(/C=C/c1cccnc1)NCCCCC1CCN(C(=O)C2CCCOC2)CC1 (centres undefined) |  |
|  |  | O=C(NCCCc1cn[nH]c1)c1ccc(-c2ccncc2)c(C#Cc2ccc(F)cc2)c1 | EC50 (PANC-1 [2]): 3.5 nM |
| 16 nM |  | O=C(/C=C/c1cccnc1)NCCCCC1CCN(S(=O)(=O)c2ccccc2)CC1 |  |
| 10 nM |  | O=C(/C=C/c1cccnc1)NCCCCC1CCN(C(=O)c2ccc(F)cc2)CC1 |  |
| 800 nM |  | CC(=O)c1ccc(C(=O)N2CCC(CCCCNC(=O)/C=C/c3cccnc3)CC2)cc1 |  |
| 5 nM | 2.7 nM | COc1cccc(OC)c1C(=O)N1CCC(C/C=C/CNC(=O)/C=C/c2cccnc2)CC1 | IC50 (PANC-1 [3]): 2.3 nM; IC50 (BXPC-3): 0.4 nM |
| 3.6 nM | 4.5 nM | COc1cccc(C(=O)N2CCC(CCCCNC(=O)/C=C/c3cccnc3)CC2)c1OC | Activity (Jurkat [4]): Active; Activity (Jurkat [5]): Active; IC50 (PANC-1 [3]): 3.2 nM; Activity (Jurkat [6]): inactive; IC50 (BXPC-3): 25 nM; Activity (Jurkat [7]): inactive |
| 2.3 nM | 4 nM | O=C(/C=C/c1cccnc1F)NCCCCC1CCN(C(=O)c2ccccc2)CC1 |  |
| 0.8 nM | 3 nM | COc1cc(C=O)cc(OC)c1C(=O)N1CCC(CCCCNC(=O)/C=C/c2cccnc2F)CC1 | IC50 (PANC-1 [3]): 16 nM; IC50 (BXPC-3): 53 nM |
| 100 nM |  | O=C(/C=C/c1cccnc1)NC/C=C/C1CCN(C(=O)c2ccccc2)CC1 |  |
| 0.8 nM | 0.5 nM | COc1cccc(OC)c1C(=O)N1CCC(CCCCNC(=O)/C=C/c2cccnc2)CC1 | Activity (Jurkat [4]): Active; Activity (Jurkat [5]): Active; IC50 (PANC-1 [3]): 0.6 nM; Activity (Jurkat [6]): inactive; IC50 (BXPC-3): 0.004 nM; Activity (Jurkat [7]): inactive |
| 2500 nM |  | O=C(/C=C/c1ccc(Cl)nc1Cl)NCCCCC1CCN(C(=O)c2ccccc2)CC1 |  |
| 18 nM |  | O=C(/C=C/c1cccnc1)NCCCCC1CCN(C(=O)Cc2ccccc2)CC1 |  |
| 850 nM |  | COc1cccc(OC)c1C(=O)N1CCC(OCCCNC(=O)/C=C/c2cccnc2)CC1 |  |
| 4.3 nM | 3.9 nM | COc1ccc(OC)c(C(=O)N2CCC(CCCCNC(=O)/C=C/c3cccnc3)CC2)c1 | IC50 (PANC-1 [3]): 2.8 nM; IC50 (BXPC-3): 13 nM |
| 50 nM |  | O=C(/C=C/c1cccnc1)NCCCCC1CCN(C(=O)C2CCCCO2)CC1 (centres undefined) |  |
| 28 nM |  | COc1ccc(C(=O)N2CCC(CCCCNC(=O)/C=C/c3cccnc3)CC2)c(OC)c1OC |  |
| 100 nM |  | COc1ccc(C(=O)N2CCC(CCCCNC(=O)/C=C/c3cccnc3)CC2)cc1 |  |
| 36 nM |  | O=C(/C=C/c1cccnc1)NCCCCC1CCN(C(=O)/C=C/c2ccccc2)CC1 |  |
| 28 nM |  | O=C(/C=C/c1cccnc1)NCCCCC1CCN(C(=O)CCc2ccccc2)CC1 |  |
| > 1000 nM |  | O=C(/C=C/c1cnccn1)NCCCCC1CCN(C(=O)c2ccccc2)CC1 |  |
| 350 nM |  | O=C(/C=C/c1cccnc1)NCCCCC1CCN(C(=O)C2CCC(=O)N2)CC1 (centres undefined) |  |
| 6.5 nM | 24 nM | COc1cccc(OC)c1C(=O)N1CCC(CCCCNC(=O)/C=C/c2cccnc2F)CC1 | IC50 (PANC-1 [3]): 5.7 nM |
| 0.4 nM | 0.25 nM | COc1cc(C=O)cc(OC)c1C(=O)N1CCC(CCCCNC(=O)/C=C/c2cccnc2)CC1 | IC50 (PANC-1 [3]): 1.9 nM; IC50 (BXPC-3): 13 nM |
| > 1000 nM |  | O=C(/C=C/c1cccnc1)NCCCCC1CCN(C(=O)c2ccc(C(F)(F)F)cc2)CC1 |  |
| 2.3 nM | 1 nM | COc1ccccc1C(=O)N1CCC(CCCCNC(=O)/C=C/c2cccnc2)CC1 | Activity (Jurkat [4]): Active; Activity (Jurkat [5]): Active; IC50 (PANC-1 [3]): 0.08 nM; Activity (Jurkat [6]): inactive; IC50 (BXPC-3): 0.5 nM; Activity (Jurkat [7]): inactive |
| 5.8 nM | 3.9 nM | O=C(/C=C/c1cccnc1)NCCCCC1CCN(C(=O)c2ccccc2O)CC1 | IC50 (PANC-1 [3]): 1.3 nM; IC50 (BXPC-3): 8.1 nM |
| 32 nM |  | O=C(/C=C/c1cccnc1)NCCCCC1CCN(C(=O)C2CCCCC2)CC1 |  |

| IC50 (Jurkat [1]) | IC50 (MIA PaCa-2) | Compound | other results |
| --- | --- | --- | --- |
| 9 nM |  | COc1cccc(C(=O)N2CCC(CCCCNC(=O)/C=C/c3cccnc3)CC2)c1 |  |
| 32 nM |  | COc1ccc(C(=O)N2CCC(CCCCNC(=O)/C=C/c3cccnc3)CC2)cc1OC |  |
| 73 nM | 75 nM | COc1cccc(OC)c1C(=O)N1CCC(CCCCNC(=O)/C=C/c2ccc(F)nc2F)CC1 | IC50 (PANC-1 [3]): 2 nM |
| 2500 nM |  | O=C(/C=C/c1cccnc1Cl)NCCCCC1CCN(C(=O)c2ccccc2)CC1 |  |
| 20 nM |  | O=Cc1ccc(C(=O)N2CCC(CCCCNC(=O)/C=C/c3cccnc3)CC2)cc1 |  |
| > 200 nM |  | O=C(/C=C/c1cccnc1)NCCC1CCN(C(=O)c2ccccc2)CC1 |  |
| 1 nM | 0.16 nM | COc1cc(OC)c(C(=O)N2CCC(CCCCNC(=O)/C=C/c3cccnc3)CC2)c(OC)c1 | Activity (Jurkat [4]): Active; Activity (Jurkat [5]): Active; IC50 (PANC-1 [3]): 0.9 nM; Activity (Jurkat [6]): inactive; IC50 (BXPC-3): 1.7 nM; Activity (Jurkat [7]): inactive |
| 40 nM |  | O=Cc1cccc(C(=O)N2CCC(CCCCNC(=O)/C=C/c3cccnc3)CC2)c1 |  |
| 400 nM |  | Cc1ccc(S(=O)(=O)N2CCC(CCCCNC(=O)/C=C/c3cccnc3)CC2)cc1 |  |
| 35 nM | 25 nM | COc1cccc(OC)c1C(=O)N1CCC(CCCCNC(=O)/C=C/c2ccnnc2)CC1 | IC50 (BXPC-3): 15.6 nM |
| 0.6 nM | 2.2 nM | O=C(/C=C/c1cccnc1)NCCCCC1CCN(C(=O)c2ccccc2)CC1 [DAPORINAD] | Activity (Jurkat [4]): Active; Activity (Jurkat [5]): Active; IC50 (PANC-1 [3]): 0.6 nM; IC50 (BXPC-3): 0.3 nM |
| > 1000 nM |  | COc1cccc(OC)c1C(=O)N1CCC(CCCCNC(=O)/C=C/c2cnccn2)CC1 |  |
| 33 nM | 69 nM | O=C(/C=C/c1ccnnc1)NCCCCC1CCN(C(=O)c2ccccc2)CC1 | IC50 (BXPC-3): 19.4 nM |
| 850 nM |  | CC(=O)c1cccc(C(=O)N2CCC(CCCCNC(=O)/C=C/c3cccnc3)CC2)c1 |  |
| 6.7 nM | 13.5 nM | O=C(/C=C/c1ccc(F)nc1F)NCCCCC1CCN(C(=O)c2ccccc2)CC1 | IC50 (PANC-1 [3]): 14 nM; IC50 (BXPC-3): 31 nM |
| 30 nM |  | O=C(/C=C/c1cccnc1)NCCCCC1CCN(C(=O)C2CCOCC2)CC1 |  |
| 10 nM |  | COc1cc(C(=O)N2CCC(CCCCNC(=O)/C=C/c3cccnc3)CC2)cc(OC)c1OC |  |
| 30 nM |  | O=C(/C=C/c1cccnc1)NCCCCC1CCN(C(=O)C2CCCO2)CC1 (centres undefined) |  |
| 3 nM | 0.8 nM | COc1cc(OC)c(C(=O)N2CCC(C/C=C/CNC(=O)/C=C/c3cccnc3)CC2)c(OC)c1 | IC50 (PANC-1 [3]): 0.4 nM; IC50 (BXPC-3): 2.8 nM |
| 800 nM |  | O=C(/C=C/c1cccnc1)NCCCOC1CCN(C(=O)c2ccccc2)CC1 |  |
| 34 nM |  | O=C(/C=C/c1cccnc1)NCCCCC1CCN(C(=O)c2ccc(CO)cc2)CC1 |  |
| 68 nM |  | O=C(/C=C/c1cccnc1)NCCCCC1CCN(C(=O)c2ccc([N+](=O)[O-])cc2)CC1 |  |
| 8.4 nM | 4 nM | COc1ccc(C(=O)N2CCC(CCCCNC(=O)/C=C/c3cccnc3)CC2)c(OC)c1 | IC50 (PANC-1 [3]): 0.2 nM; IC50 (BXPC-3): 24 nM |
| 100 nM |  | O=C(/C=C/c1ccc[n+]([O-])c1)NCCCCC1CCN(C(=O)c2ccccc2)CC1 |  |
| 2500 nM |  | O=C(/C=C/c1cccnc1)NCC1OC1CC1CCN(C(=O)c2ccccc2)CC1 (centres undefined) |  |
| 3500 nM |  | O=C(/C=C/c1cccnc1)NCC(O)CCC1CCN(C(=O)c2ccccc2)CC1 (centres undefined) |  |
| 10 nM | 13 nM | O=C(/C=C/c1cccnc1)NC/C=C/CC1CCN(C(=O)c2ccccc2)CC1 | IC50 (PANC-1 [3]): 8.6 nM; IC50 (BXPC-3): 34 nM |
